# Assay results from patent publication US11124516B2, “Pyrrolo[1,2-A]pyrimidinyl carboxamide compounds and their use in the treatment of medical disorders” (Bial—Biotech Investments, Inc., priority 2016, dated 2021).
# Target: T1, glucocerebrosidase (Gcase) (Homo sapiens, UniProt P04062)
# T1 sequence (P04062 40-536): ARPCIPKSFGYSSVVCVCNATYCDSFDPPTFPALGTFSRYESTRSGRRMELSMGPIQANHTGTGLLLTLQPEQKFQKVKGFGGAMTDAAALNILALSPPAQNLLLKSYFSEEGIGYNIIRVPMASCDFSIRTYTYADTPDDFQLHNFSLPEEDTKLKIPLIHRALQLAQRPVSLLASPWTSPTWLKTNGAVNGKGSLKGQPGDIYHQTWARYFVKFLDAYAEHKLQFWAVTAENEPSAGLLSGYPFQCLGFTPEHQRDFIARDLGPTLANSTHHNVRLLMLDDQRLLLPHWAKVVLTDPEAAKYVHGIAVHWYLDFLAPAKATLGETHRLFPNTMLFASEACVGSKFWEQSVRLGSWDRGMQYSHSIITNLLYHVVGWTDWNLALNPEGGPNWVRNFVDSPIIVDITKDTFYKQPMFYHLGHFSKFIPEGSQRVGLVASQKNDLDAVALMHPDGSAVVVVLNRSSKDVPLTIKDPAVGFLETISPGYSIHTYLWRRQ
# Assay: Glucocerebrosidase (Gcase) activation assay, 4-methylumbelliferyl-beta-D-glucopyranoside substrate, fluorescence
# Type: biochemical
# Conditions: 0.25 h, pH 4.7, test compound at 0.1 μM, 10 nM GCase, 100 nM saposin C, read-out: Percent Gcase Activation 0.1 μM Test Compound
# Description: The ability of exemplary compounds to activate glucocerebrosidase (Gcase) was measured.
# A 484 μL aliquot of a 1.0 mg/mL solution of phosphatidylserine (PS) (Sigma P7769) in chloroform was evaporated under a stream of nitrogen for 1 hour. The lipid film was dissolved over 4 minutes of vigorous vortexing in 40 mL of 176 mM K2HPO4/50 mM citric acid (pH 4.7) containing 7.5 μL of triton X-100, resulting in a mixed micellar preparation with a composition of 0.32 mM triton and 0.37 mol % PS. 4-Methylumbelliferyl-beta-D-glucopyranoside (ACROS-337025000) was dissolved in the micellar solution to a final concentration of 2 mM for use as the reaction substrate.
# Test compounds were diluted to the desired concentrations with dimethylsulfoxide (DMSO) from 10 mM stocks, and 0.41 μL of the DMSO compound mixture was added to 100 μL of micellar solution containing 10 nM GCase and 100 nM saposin C (Enzo ALX-201-262-C050). Pre-incubation was allowed to occur for 30 minutes at room temperature, after which the reaction was initiated by combining 25 μL of substrate solution with 25 μL of compound/GCase/saposin mixture. The reaction proceeded for 15 minutes at room temperature and was stopped by adding 150 μL of 1M glycine, pH 12.5. The endpoint of the reaction was monitored by measuring fluorescence intensity (excitation: 365 nm; emission: 440 nm) on a SpectraMax i3 instrument (Molecular Devices). Test compounds were screened at 1.0 and 0.1 μM final concentration, and subsequent 8-point dose response curves were obtained using 3-fold dilutions from a maximum final concentration of 5 μM.
# For experiments in which the test compound was used at a concentration of 1.0 μM, the symbol “+” indicates less than 30% Gcase activation; the symbol “++” indicates Gcase activation in the range of 30% up to 60%; and the symbol “+++” indicates Gcase activation greater than 60%. For experiments in which the test compound was used at a concentration of 0.1 μM, the symbol “*” indicates less than 10% Gcase activation; the symbol “**” indicates Gcase activation in the range of 10% up to 20%; and the symbol “***” indicates greater than 20% Gcase activation.
row,activation at 0.1 µM [%],Structure (SMILES)
1,10 to 20,CCc1ccc([C@@H](C)NC(=O)c2ccn3c(C)cc(C)nc23)cc1 [IV-100]
2,< 10,CCC(CO)(NC(=O)c1ccn2c(C)cc(C)nc12)c1ccccc1 (stereo not drawn) [IV-101]
3,< 10,Cc1cc(C)n2ccc(C(=O)NC(C)c3cccc(N4CCCC4)c3)c2n1 (stereo not drawn) [IV-102]
4,> 20,Cc1cc(C)n2ccc(C(=O)NC(C)(C)c3ccc(F)cc3)c2n1 [IV-103]
5,> 20,Cc1cc(C)n2ccc(C(=O)NC(C)c3ccc(C)c(F)c3)c2n1 (stereo not drawn) [IV-104]
6,> 20,CCC(NC(=O)c1ccn2c(C)cc(C)nc12)c1cccc(Cl)c1 (stereo not drawn) [IV-105]
7,< 10,CCn1c(C(C)NC(=O)c2ccn3c(C)cc(C)nc23)nc2c1CCCC2 (stereo not drawn) [IV-106]
8,10 to 20,Cc1cc(C)n2ccc(C(=O)NC(C)c3ccc(F)c(C)c3)c2n1 (stereo not drawn) [IV-107]

# Continued, compound first:
row,Structure (SMILES),activation at 0.1 µM [%]
1,CCC(NC(=O)c1ccn2c(C)cc(C)nc12)c1ccc(OC)cc1 (stereo not drawn) [IV-83],> 20
2,Cc1cc(C)n2ccc(C(=O)N[C@H](C)c3ccc4c(c3)OCO4)c2n1 [IV-84],10 to 20
3,Cc1cc(C)n2ccc(C(=O)NC(C)c3nc4ccccc4n3C)c2n1 (stereo not drawn) [IV-85],< 10
4,CCC(NC(=O)c1ccn2c(C)cc(C)nc12)c1nc2ccccc2[nH]1 (stereo not drawn) [IV-86],< 10
5,Cc1cc(C)n2ccc(C(=O)NC(C)C3Oc4ccccc4C3C)c2n1 (stereo not drawn) [IV-87],10 to 20
6,CCOc1ccc(C(C)NC(=O)c2ccn3c(C)cc(C)nc23)cc1 (stereo not drawn) [IV-88],> 20
7,Cc1cc(C)n2ccc(C(=O)NC(C)C34CC5CC(C3)C(C5)C4)c2n1 (stereo not drawn) [IV-89],> 20
8,Cc1cc(C)n2ccc(C(=O)NC(CO)c3ccc4ccccc4c3)c2n1 (stereo not drawn) [IV-90],< 10
9,Cc1ccc(C(CO)NC(=O)c2ccn3c(C)cc(C)nc23)c(C)c1 (stereo not drawn) [IV-91],< 10
10,Cc1cc(C)n2ccc(C(=O)NC(CO)c3cccc(C)c3C)c2n1 (stereo not drawn) [IV-92],< 10
11,Cc1cc(C)n2ccc(C(=O)NC(CO)c3ccc(C(C)C)cc3)c2n1 (stereo not drawn) [IV-93],< 10
12,Cc1cc(C)n2ccc(C(=O)NC(CO)c3cccc4ccccc34)c2n1 (stereo not drawn) [IV-94],< 10
13,Cc1cc(C)n2ccc(C(=O)N[C@H](C)c3cccc4c3CCCC4)c2n1 [IV-95],10 to 20
14,Cc1cc(C)n2ccc(C(=O)NC(C)(C)c3cccc(Cl)c3)c2n1 [IV-96],> 20
15,Cc1cc(C)n2ccc(C(=O)N[C@H](C)c3ccc(F)cc3)c2n1 [IV-97],10 to 20
16,CCC(=O)Nc1ccc(C(C)NC(=O)c2ccn3c(C)cc(C)nc23)cc1 (stereo not drawn) [IV-98],> 20
17,Cc1cc(C)n2ccc(C(=O)N[C@@H](C)c3cccc4c3CCCC4)c2n1 [IV-99],> 20

# Same assay, conditions: 0.25 h, pH 4.7, test compound at 1.0 μM, 10 nM GCase, 100 nM saposin C, read-out: Percent Gcase Activation 1 μM Test Compound
row,activation at 1 µM [%],Structure (SMILES)
1,> 60,CCc1ccc([C@@H](C)NC(=O)c2ccn3c(C)cc(C)nc23)cc1 [IV-100]
2,30 to 60,CCC(CO)(NC(=O)c1ccn2c(C)cc(C)nc12)c1ccccc1 (stereo not drawn) [IV-101]
3,> 60,Cc1cc(C)n2ccc(C(=O)NC(C)c3cccc(N4CCCC4)c3)c2n1 (stereo not drawn) [IV-102]
4,> 60,Cc1cc(C)n2ccc(C(=O)NC(C)(C)c3ccc(F)cc3)c2n1 [IV-103]
5,> 60,Cc1cc(C)n2ccc(C(=O)NC(C)c3ccc(C)c(F)c3)c2n1 (stereo not drawn) [IV-104]
6,> 60,CCC(NC(=O)c1ccn2c(C)cc(C)nc12)c1cccc(Cl)c1 (stereo not drawn) [IV-105]
7,< 30,CCn1c(C(C)NC(=O)c2ccn3c(C)cc(C)nc23)nc2c1CCCC2 (stereo not drawn) [IV-106]
8,> 60,Cc1cc(C)n2ccc(C(=O)NC(C)c3ccc(F)c(C)c3)c2n1 (stereo not drawn) [IV-107]

# The next lines start with the compound.
row,Structure (SMILES),activation at 1 µM [%]
1,CCC(NC(=O)c1ccn2c(C)cc(C)nc12)c1ccc(OC)cc1 (stereo not drawn) [IV-83],> 60
2,Cc1cc(C)n2ccc(C(=O)N[C@H](C)c3ccc4c(c3)OCO4)c2n1 [IV-84],> 60
3,Cc1cc(C)n2ccc(C(=O)NC(C)c3nc4ccccc4n3C)c2n1 (stereo not drawn) [IV-85],< 30
4,CCC(NC(=O)c1ccn2c(C)cc(C)nc12)c1nc2ccccc2[nH]1 (stereo not drawn) [IV-86],< 30
5,Cc1cc(C)n2ccc(C(=O)NC(C)C3Oc4ccccc4C3C)c2n1 (stereo not drawn) [IV-87],> 60
6,CCOc1ccc(C(C)NC(=O)c2ccn3c(C)cc(C)nc23)cc1 (stereo not drawn) [IV-88],> 60
7,Cc1cc(C)n2ccc(C(=O)NC(C)C34CC5CC(C3)C(C5)C4)c2n1 (stereo not drawn) [IV-89],> 60
8,Cc1cc(C)n2ccc(C(=O)NC(CO)c3ccc4ccccc4c3)c2n1 (stereo not drawn) [IV-90],< 30
9,Cc1ccc(C(CO)NC(=O)c2ccn3c(C)cc(C)nc23)c(C)c1 (stereo not drawn) [IV-91],< 30
10,Cc1cc(C)n2ccc(C(=O)NC(CO)c3cccc(C)c3C)c2n1 (stereo not drawn) [IV-92],< 30
11,Cc1cc(C)n2ccc(C(=O)NC(CO)c3ccc(C(C)C)cc3)c2n1 (stereo not drawn) [IV-93],< 30
12,Cc1cc(C)n2ccc(C(=O)NC(CO)c3cccc4ccccc34)c2n1 (stereo not drawn) [IV-94],30 to 60
13,Cc1cc(C)n2ccc(C(=O)N[C@H](C)c3cccc4c3CCCC4)c2n1 [IV-95],> 60
14,Cc1cc(C)n2ccc(C(=O)NC(C)(C)c3cccc(Cl)c3)c2n1 [IV-96],> 60
15,Cc1cc(C)n2ccc(C(=O)N[C@H](C)c3ccc(F)cc3)c2n1 [IV-97],> 60
16,CCC(=O)Nc1ccc(C(C)NC(=O)c2ccn3c(C)cc(C)nc23)cc1 (stereo not drawn) [IV-98],> 60
17,Cc1cc(C)n2ccc(C(=O)N[C@@H](C)c3cccc4c3CCCC4)c2n1 [IV-99],> 60

# Same assay, conditions: test compound at 0.1 μM; 10 nM GCase, 100 nM saposin C, pH 4.7
row,Percent Gcase Activation 0.1 μM Test Compound,Structure (SMILES)
1,*** (greater than 20% Gcase activation),Cc1cc(C)n2ccc(C(=O)NC(C)C3CCCCC3)c2n1 (stereo not drawn) [III-67]
2,* (less than 10% Gcase activation),Cc1cc(C)n2ccc(C(=O)NC(C)C3COc4ccccc4O3)c2n1 (stereo not drawn) [IV-36]

# Same assay, conditions: test compound at 1.0 μM; 10 nM GCase, 100 nM saposin C, pH 4.7
row,Percent Gcase Activation 1 μM Test Compound,Structure (SMILES)
1,+++ (Gcase activation greater than 60%),Cc1cc(C)n2ccc(C(=O)NC(C)C3CCCCC3)c2n1 (stereo not drawn) [III-67]
2,+ (less than 30% Gcase activation),Cc1cc(C)n2ccc(C(=O)NC(C)C3COc4ccccc4O3)c2n1 (stereo not drawn) [IV-36]
